Measurements reported in patent US8653040B2, “Compositions containing sesamin-class compound(s) and quercetin glycoside(s)” (Suntory Holdings Limited, priority 2007, dated 2014).

Assay: Blood (plasma) concentration of sesamin and episesamin in rats after oral administration of the mixture of sesamin-class compounds alone or simultaneously with a test substance (LC-MS/MS)
Details: Example 3, 10 mg/kg sesamin-class compounds plus 200 μmol/kg test flavonoid glycoside in 0.5% CMC suspension
Protocol: SD (IGS) male rats (7-wk old) were purchased from CHARLES RIVER JAPAN INC. and habituated in the test environment for a week; the animals that were seen to grow normally were selected and subjected to the test. […] After adding an internal standard (UDESMIN; Funakoshi Co., Ltd.) to the samples, solid-phase extraction was performed with Oasis HLB and the resulting solution was concentrated under vacuum, suspended in methanol, passed through a filter, and subjected to LC-MS/MS for quantification of sesamin. The quantities of the sesamin-class compounds were determined from the ratio between their peak area and that of UDESMIN used as the internal standard. […]

Substance: αG-hesperidin
- bodily absorption amount (AUC) of the sesamin-class compounds relative to the control: 0.71 times
